Measurements from PMC3111191, “Molecular Evolution of Multiple Arylalkylamine N-Acetyltransferase (AANAT) in Fish” (Marine Drugs, 2011).

Tests used:
AANAT2 = AANAT2 (Sparus aurata, UniProt Q68SL6); assay: radiochemical assay, inhibition of tryptamine acetylation; format: biochemical; conditions: read-out: % inhibition at 50 mM
AANAT1a = target: T1, AANAT1a (Sparus aurata, UniProt Q68SL7); assay: as above; format: biochemical; conditions: read-out: % inhibition at 5 mM
T1 construct: gene AANAT1
T1 sequence (Q68SL7 1-202): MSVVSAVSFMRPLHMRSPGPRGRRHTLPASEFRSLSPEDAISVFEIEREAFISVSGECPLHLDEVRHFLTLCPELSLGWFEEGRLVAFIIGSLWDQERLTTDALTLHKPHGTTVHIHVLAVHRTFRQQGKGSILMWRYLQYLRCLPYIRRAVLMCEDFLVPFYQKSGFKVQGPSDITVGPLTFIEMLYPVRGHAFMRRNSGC

AANAT2, sequence (Q68SL6 1-205): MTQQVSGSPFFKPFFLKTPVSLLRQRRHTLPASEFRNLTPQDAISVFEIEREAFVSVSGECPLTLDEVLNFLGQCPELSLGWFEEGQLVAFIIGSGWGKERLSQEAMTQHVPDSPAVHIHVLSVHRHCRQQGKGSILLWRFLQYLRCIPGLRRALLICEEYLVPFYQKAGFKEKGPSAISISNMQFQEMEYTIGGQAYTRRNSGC

inhibition at 50000 µM (AANAT2): ~60%
inhibition at 5000 µM (AANAT1a): ~60%
SMILES: NCCc1ccc(O)c(O)c1 [dopamine]
